According to patent publication US20170209492A1, “SUBSET-OPTIMIZED CHIMERIC ANTIGEN RECEPTOR-CONTAINING T-CELLS” (NOVARTIS AG, priority 2014, published 2017):

What was measured:
[1] = test system: huCART19 cells co-cultured with NALM6 (Nalm-6); assay: CART proliferation in 4 day co-culture assay with RAD001; type: cell-based, human; settings: for proliferation of huCART19 cells: 4 day co-culture
Protocol: To evaluate the functionality of CARTs, the T cells are thawed and counted, and viability is assessed by Cellometer. The number of CAR-positive cells in each culture is normalized using non-transduced T cells (UTD). The impact of RAD001 on CARTs was tested in titrations with RAD001, starting at 50 nM. The target cell line used in all co-culture experiments is NALM6 (Nalm-6), a human pre-B cell acute lymphoblastic leukemia (ALL) cell line expressing CD19 and transduced to express luciferase.
For measuring the proliferation of CARTs, T cells are cultured with target cells at a ratio of 1:1. The assay is run for 4 days, when cells are stained for CD3, CD4, CD8 and CAR expression. The number of T cells is assessed by flow cytometry using counting beads as reference.

NALM6-luc tumors = assay: NALM6-luc tumor growth with daily RAD001 dosing; type: in vivo, NSG mice; settings: daily oral dosing of RAD001 alone, 0.3, 1, 3 and 10 mg/kg
Protocol: NALM6-luc cells: The NALM6 human acute lymphoblastic leukemia (ALL) cell line was developed from the peripheral blood of a patient with relapsed ALL. The cells were then tagged with firefly luciferase. These suspension cells grow in RPMI supplemented with 10% heat inactivated fetal bovine serum.
Mice: 6 week old NSG (NOD.Cg-PrkdcscidIl2rgtmlWj1/SzJ) mice were received from the Jackson Laboratory (stock number 005557).
(§1) Tumor implantation: NALM6-luc cells were grown and expanded in vitro in RPMI supplemented with 10% heat inactivated fetal bovine serum. The cells were then transferred to a 15 ml conical tube and washed twice with cold sterile PBS. NALM6-luc cells were then counted and resuspended at a concentration of 10×10^6 cells per milliliter of PBS. The cells were placed on ice and immediately (within one hour) implanted in the mice. NALM6-luc cells were injected intravenously via the tail vein in a 100 μl volume, for a total of 1×10^6 cells per mouse.
(§2) RAD001 dosing: A concentrated micro-emulsion of 50 mg equal to 1 mg RAD001 was formulated and then resuspended in D5W (dextrose 5% in water) at the time of dosing. Mice were orally dosed daily (via oral gavage) with 200 μl of the desired doses of RAD001.

huCAR19 CAR T cells = assay: in vivo proliferation of humanized CD19 CART cells with RAD001 dosing; design: species or system NSG mice
Protocol: as §1
CAR T cell dosing: Mice were administered 5×10^6 CAR T cells 7 days after tumor implantation. Cells were partially thawed in a 37 degree Celsius water bath and then completely thawed by the addition of 1 ml of cold sterile PBS to the tube containing the cells. The thawed cells were transferred to a 15 ml falcon tube and adjusted to a final volume of 10 mls with PBS. The cells were washed twice at 1000 rpm for 10 minutes each time and then counted on a hemocytometer. T cells were then resuspended at a concentration of 50×10^6 CAR T cells per ml of cold PBS and kept on ice until the mice were dosed. The mice were injected intravenously via the tail vein with 100 μl of the CAR T cells for a dose of 5×10^6 CAR T cells per mouse. Eight mice per group were treated either with 100 μl of PBS alone (PBS), or humanized CD19 CAR T cells.
as §2
Based on these doses, huCAR19 CAR T cells were dosed with and without RAD001 to determine the proliferative ability of these cells. The highest dose used was 3 mg/kg based on the levels of RAD001 in the blood 24 hours after dosing. As the concentration of RAD001 was above 10 nM 24 hours after the final dose of RAD001, several lower doses of RAD001 were used in the in vivo study with CAR T cells. The CAR T cells were dosed IV one day prior to the start of the daily oral RAD001 dosing. Mice were monitored via FACS for T cell expansion.

[2] = pharmacokinetic analysis of RAD001 in blood; type: in vivo, NSG mice
Protocol: as §2
PK analysis: Mice were dosed daily with RAD001 starting 7 days post tumor implantation. Dosing groups were as follows: 0.3 mg/kg, 1 mg/kg, 3 mg/kg, and 10 mg/kg. Mice were bled on days 0 and 14 following the first and last dose of RAD001, at the following time points for PK analysis: 15 minutes, 30 minutes, 1 hour, 2 hours, 4 hours, 8 hours, 12 hours, and 24 hours.

CO[C@H]1C[C@@H]2CC[C@@H](C)[C@@](O)(O2)C(=O)C(=O)N2CCCC[C@H]2C(=O)O[C@H]([C@H](C)C[C@@H]2CC[C@@H](OCCO)[C@H](OC)C2)CC(=O)[C@H](C)/C=C(\C)[C@@H](O)[C@@H](OC)C(=O)[C@H](C)C[C@H](C)/C=C/C=C/C=C/1C [RAD001, (1R,9S,12S,15R,16E,18R,19R,21R,23S,24E,26E,28E,30S,32S,35R)-1,18-dihydroxy-12-{(1R)-2-[(1S ,3R,4R)-4-(2-hydroxyethoxy)-3-methoxycyclohexyl]-1-methylethyl}-19,30-dimethoxy-15,17,21,23,29,35-hexamethyl-11,36-dioxa-4-aza-tricyclo[30.3.1.04,9]hexatriaconta-16,24,26,28-tetraene-2,3,10,14,20-pentaone]
proliferation of huCART19 cells ([1]; 0.0032 nM RAD001): higher than observed without the addition of RAD001
proliferation of huCART19 cells ([1]; 0.016 nM RAD001): higher than observed without the addition of RAD001
proliferation of CAR-expressing, transduced T cells ([1]; low doses of RAD001, 4 days of co-culture): enhanced
growth of NALM6-luc tumors (NALM6-luc tumors): did not have an impact
CAR T cell proliferation in vivo (huCAR19 CAR T cells; RAD001 0.003 mg/kg daily, above the normal level of huCAR19 proliferation): enhancement
proliferation of CD8+ CAR T cells in vivo (huCAR19 CAR T cells; lowest doses of RAD001): enhanced proliferation can be seen at early time points
proliferation of the CAR T cells in vivo (huCAR19 CAR T cells; lowest doses of RAD001, daily oral, huCAR19 dosed IV): enhanced proliferation
proliferation of CD4+ CAR T cells in vivo (huCAR19 CAR T cells; lowest doses of RAD001, compared with CD8+ CAR T cells): more evident and prolonged
concentration at 24 h ([2]; NSG, mouse, blood, lowest dose tested (0.3 mg/kg), oral, read-out: RAD001 concentration in the blood 24 hours after dosing): > 10 nM
concentration of RAD001 24 hours after the final dose ([2]; after the final dose of RAD001): above 10 nM
stability in the blood of tumor bearing mice ([2]; daily oral dosing): fairly stable
RAD001 concentration in the blood 24 hours after dosing ([2]; day 14, lowest dose tested (0.3 mg/kg), oral): above 10 nm
